Measurements from ChEMBL document CHEMBL5303304, “EUbOPEN Chemogenomics Library - IncuCyte” (2023).

Assays:
Type in all cases: toxicity, cell-based
U2OS = assay: Incucyte cell viability with U2OS; settings: human, 10 µM, compound concentration 10 uM
Fibroblast = assay: Incucyte cell viability with human fibroblast; settings: 10 µM, compound concentration 10 uM
HEK-293T = assay: Incucyte cell viability with HEK293T; settings: human, 10 µM, compound concentration 10 uM
Note: unitless GR value; below 1 slowed growth and below 0 cell loss.

Compound | Growth Rate (U2OS; 0 h, replicate number 1) | Growth Rate (U2OS; 6 h, replicate number 1) | Growth Rate (U2OS; 12 h, replicate number 1) | Growth Rate (U2OS; 18 h, replicate number 1) | Growth Rate (U2OS; 24 h, replicate number 1) | Growth Rate (Fibroblast; 0 h, replicate number 1) | Growth Rate (Fibroblast; 6 h, replicate number 1) | Growth Rate (Fibroblast; 6 h, replicate number 2) | Growth Rate (Fibroblast; 12 h, replicate number 1) | Growth Rate (Fibroblast; 12 h, replicate number 2) | Growth Rate (Fibroblast; 18 h, replicate number 1) | Growth Rate (Fibroblast; 24 h, replicate number 1) | Growth Rate (HEK-293T; 6 h, replicate number 1) | Growth Rate (HEK-293T; 6 h, replicate number 2) | Growth Rate (HEK-293T; 12 h, replicate number 1) | Growth Rate (HEK-293T; 12 h, replicate number 2) | Growth Rate (HEK-293T; 18 h, replicate number 1) | Growth Rate (HEK-293T; 18 h, replicate number 2) | Growth Rate (HEK-293T; 24 h, replicate number 1) | Growth Rate (HEK-293T; 24 h, replicate number 2) | further results
N[C@@H]1CCCC[C@H]1Oc1ccc2ncc(-c3cc4ccccc4o3)n2n1 | -0.99 | -0.96 | -0.95 | -0.88 | -0.75 | -1 | -0.12 | -0.77 | -0.57 | -0.62 | -0.67 | -0.62 | -0.98 | -0.97 | -0.86 | -0.77 | -0.66 | -0.63 | -0.53 | -0.43 | Growth Rate (U2OS; 6 h, replicate number 2): -0.91; Growth Rate (U2OS; 12 h, replicate number 2): -0.8; Growth Rate (U2OS; 18 h, replicate number 2): -0.72; Growth Rate (U2OS; 24 h, replicate number 2): -0.63; Growth Rate (Fibroblast; 18 h, replicate number 2): -0.65; Growth Rate (Fibroblast; 24 h, replicate number 2): -0.55
CN(CCCCCCC1=C(c2cc(F)cc(F)c2)CCCc2cc(O)ccc21)CCCCS(=O)(=O)CCCC(F)(F)F | -1 | -0.96 | -0.94 | -0.87 | -0.72 | -1 | -0.99 | -1 | -0.97 |  | -0.89 | -0.77 | -0.95 | -0.98 | -0.48 | -0.83 | -0.16 | -0.52 | -0.1 | -0.38 | Growth Rate (U2OS; 0 h, replicate number 2): -0.54; Growth Rate (U2OS; 6 h, replicate number 2): -0.93; Growth Rate (U2OS; 12 h, replicate number 2): -0.68; Growth Rate (U2OS; 18 h, replicate number 2): -0.58; Growth Rate (U2OS; 24 h, replicate number 2): -0.49; Growth Rate (Fibroblast; 18 h, replicate number 2): -0.88; Growth Rate (Fibroblast; 24 h, replicate number 2): -0.65
Cl.O=C(NCCN1CCC2(CC1)C(=O)NCN2c1cccc(F)c1)c1ccc2ccccc2c1 | -0.95 | 0.46 | 0.24 | -0.13 | -0.24 | -1 | -0.03 | -0.05 | -0.27 | -0.26 | -0.19 | -0.27 | -0.37 | -0.93 | 0.06 | -0.68 | 0.22 | -0.32 | 0.34 | -0.14 | Growth Rate (U2OS; 0 h, replicate number 2): -0.98; Growth Rate (U2OS; 6 h, replicate number 2): 0.73; Growth Rate (U2OS; 12 h, replicate number 2): 0.25; Growth Rate (U2OS; 18 h, replicate number 2): 0.23; Growth Rate (U2OS; 24 h, replicate number 2): 0.17; Growth Rate (Fibroblast; 18 h, replicate number 2): -0.07; Growth Rate (Fibroblast; 24 h, replicate number 2): -0.14
Cl.O=C(O)CCCN1CCC[C@H]1COc1ccc(Oc2ccc(Cl)cc2)cc1 |  | 0.84 |  |  | 0.94 | -1 | 0.91 |  |  | 0.93 | 0.87 |  | 0.64 | -0.09 | 0.9 | 0.12 |  | 0.37 | 0.98 | 0.53 | 
CC(C)Oc1ccc(Cc2ccc(NC3=NCCN3)cc2)cc1 | 0.6 | 0.1 | 0.64 | 0.59 | 0.58 | -1 | -0.34 | 0 | -0.06 | 0.88 | 0.24 | 0.26 | -0.15 | -0.39 | 0.09 | 0.14 | 0.26 | 0.42 | 0.37 | 0.45 | Growth Rate (Fibroblast; 0 h, replicate number 2): -0.09
